Results published in patent publication US20130244876A1, “Synergistic compositions comprising ethephon and saflufenacil or cyclanilide and saflufenacil” (priority 2012, published 2013).

Legend:
[1] = tested on: soybean variety Maxi; test: Greenhouse trial for desiccation in soybean; assay type: in vivo; conditions: foliar spray 100 L/ha, three days after application
Description: (§1) The trial was established under greenhouse conditions. The objective was to evaluate the dessication activity of saflufenacil solo and in mixture with cyclanilide and ethephon.
(§2) The plants (soybean variety Maxi, cotton Variety Oxford) were sown (Dec. 3, 2012) in pots with 8.5 cm of diameter using standard soil from Limburgerhof, Palatinate, Germany, emerging after 3 days, maintained during the entire growth period at temperatures of about 20 to 24° C., relative humidity of about 65 to 70%, watering in the afternoon or in the morning. Each treatment was composed by 4 replications (one plant per pot).
(§3) Foliar treatments were applied 51 days after sowing (Jan. 23, 2013) in a spray cabin with one Flat fan nozzle, using 100 L/ha as application volume. The spray solutions were prepared according to the given concentration of Tables 1 and 2 and contained in addition to the formulations used a surfactant (DASH HC, BASF S.A., Brazil; EC formulation based on methyl esters) at 0,5% (v/v).
(§4) Saflufenacil (70% (w/w), WG formulation; Sharpen® BASF Corporation, USA)
(§5) Ethephon (480 g/L, SL formulation)
(§6) Cyclanilide, (300 g/kg, WP formulation)
(§7) Assessments were made at three days after applicaton in soybean and seven days after application in cotton by evaluating percentage of symptoms of damage to the crop, mainly chlorosis and necrosis.

[2] = tested on: cotton Variety Oxford; test: Greenhouse trial for desiccation in cotton; assay type: in vivo; conditions: foliar spray 100 L/ha, seven days after application
Description: as §1, §2, §3, §4, §5, §6, §7

[3] = 1.5 g of a.i. per 100 L, percentage of symptoms of damage
[4] = 1.4 g of a.i. per 100 L, percentage of symptoms of damage (chlorosis and necrosis)
[5] = 20 g of a.i. per 100 L, percentage of symptoms of damage

For O=C(O)C1(C(=O)Nc2ccc(Cl)cc2Cl)CC1 [Cyclanilide], the “Observed activity (%)” value [1, 3] was 0% and the “Observed activity (%)” value [2, 3] was 0%.

In the case of CC(C)N(C)S(=O)(=O)NC(=O)c1cc(-n2c(=O)cc(C(F)(F)F)n(C)c2=O)c(F)cc1Cl [Saflufenacil], the “Observed activity (%)” value [1, 4] is reported as 15% and the “Observed activity (%)” value [2, 4] is reported as 18.8%.

For O=P(O)(O)CCCl [Ethephon], the “Observed activity (%)” value [1, 5] was 0% and the “Observed activity (%)” value [2, 5] was 0%.
